Where no end group is shown, it is not given here.

The subject of data set [1] is murine RAW 264.7 macrophages. As to conditions: 64 µM; cited from earlier work.
The test system of the next data set is C. jeikeium ATCC BAA-949. Type of data set: cell-based, Corynebacterium jeikeium. As to conditions: lowest peptide concentration visually inhibiting growth after 20 h at 37 °C; TSB + 0.1% Tween 80; 2-fold serial dilutions; inoculum 2x10^6 CFU/mL diluted 1:1. As to the method: The MIC of the different AMPs against C. jeikeium ATCC BAA-949 were determined following the previously described procedure with some modifications. The bacterium was grown in TSB^+ up to an optical density (O.D.) of 0.8 (λ = 590 nm) and diluted to reach a concentration of 2× 10^6 colony forming units (CFU) per mL. Aliquots (50 µL) of this dilution were added to 50 µL of TSB^+ supplemented with 2-fold serial dilution of peptides previously dispensed in the wells of a 96 well plate. Controls were bacteria not treated with the peptides. […] MBC was defined as the lowest peptide concentration able to cause a ≥3 log reduction in the number of cells of the initial inoculum after 20 h of incubation.

Take “GIFSKLAGKKIKNLLISGLKG-NH2 [Esc(1-21), esculentin-1a(1-21)]”: the cell viability result in data set [1] is recorded as “about 50%”. The MIC is the smallest concentration in the dilution series that meets the test's criterion for growth inhibition. Turning to “IIGPVLGLVGSALGGLLKKI-NH2 [Bombinin H2, bombinin H2]”, the MIC with C. jeikeium ATCC BAA-949 amounted to 8 µM.

(Values after PMC7459541, “Frog Skin-Derived Peptides Against Corynebacterium jeikeium: Correlation between Antibacterial and Cytotoxic Activities” (Antibiotics, 2020).)
